Measurements: patent publication US20160113911A1, “METHODS AND COMPOSITIONS FOR THE TREATMENT OF CANCER” (THE GENERAL HOSPITAL CORPORATION, priority 2013, published 2016)

Tests used:
[1] = system: HEK 293T cells; experiment: MTT proliferation and viability assay; format: cell-based, human; settings: shRNA 4A.10 or 4A.06, 48h
Procedure: For tissue culture and generation of stable cell lines see (Black et al., 2010). Rapamycin (LC Laboratories) and AZD8055 (Selleckchem) were used at indicated concentrations. […] JIB-04 (Xcessbio) was used at a final concentration of 250 nM. For the translation assays, DMEM depleted of Methionine and Cysteine (Life Technologies 21013-024) was used.
MTT assays were performed following supplier's instructions from the Cell Proliferation Kit I™ (MTT) from Roche. Briefly, 1×10^4 cells were seeded per well of a 96 well plate and grown for 24h before treatment. Forty-eight hours later, cells were assayed.

[2] = system: RPE cells; experiment: Apoptosis by annexin V staining; format: cell-based, human; settings: RPE CTRL and KDM4A overexpressing cells
[3] = system: p53; experiment: p53 stabilization and p53 target gene induction after DNA damage; format: cell-based, human; settings: RPE GFP-CTRL and GFP-KDM4A cells; 1 uM for 16 hrs
Procedure: Western blots were performed as in (Black et al., 2010). Antibodies used were: KDM4A (Neuro mAB, 75-189), β-actin (Millipore), GFP (Neuro mAB, 73-131), RFP (Abcam, ab62341), p53 (Santa Cruz, sc-126), MCM2 (Cell Signaling, #3619S), MCM3 (Cell Signaling, #4012S), MCM7 (Cell Signaling, #3735S), Halo (Promega), Actinin (Santa Cruz, sc-17829), HA 12CA5 (Roche), FLAG M2 (Sigma), DNA Pol α (Abcam, ab31777).

[4] = system: 1q12h copy gain in RPE cells; experiment: FISH for site-specific copy gain; format: cell-based, human; settings: RPE cells
Procedure: FISH was performed as described in (Manning et al., 2010). Probes for 1q12h, 1q telomere, and chromosome 2, 6, 8, and X alpha satellite were purchased from Rainbow Scientific. Probes for 1q12 (RP11-80L2), Xq13.2 (RP11-451A22), Xq13.1 (RP11-177A4) were purchased as BAC clones from Children's Hospital Oakland Research Institute (CHORI BacPac) FISH verified clone repository. Oligonucleotide probes for 1q21.2 (BCL9) and 1q23.3 were purchased from Agilent (SureFISH). BACS were prepared utilizing PureLink HiPure Plasmid Filter Maxiprep kit (Life Technologies) using the recommended modified wash buffer. Probes were nick translated (Abbot Molecular Kit) in the presence of fluorescently labeled dTTP (Enzo Life Science). Images of multiple planes of fields of nuclei were acquired on an Olympus IX81 Spinning Disk Microscope and analyzed using Slidebook 5.0 software. We used a conservative scoring metric for copy gain. Any foci that were touching were scored as a single foci to prevent increased numbers due to normally replicated foci. For RPE cells, copy gain was scored as any cell with 3 or more distinct foci. For 293T cells, copy gain was scored for any cell with 5 or more distinct foci. For RPE cells each experiment includes at least one replicate from the two different polyclonal stable cell preparations. At least 100 cells for each replicate were scored for all experiments except analysis of single cell clones.
Cells were plated onto culture dishes and allowed to adhere for 20-24 hrs in normoxia (5% CO2, 21% O2, and 74% N2). For hypoxic treatment, cells were maintained in a HERA Cell 150™ incubator (Thermo Scientific) flushed with 5% CO2, 1% O2 or 4% O2, and balanced with N2 for the duration of the experiment. Incubator calibrations were carried out by Bianchi Associates Calibrations/Verifications.
To release, cells were washed twice with culture medium pre-conditioned in normoxia or hypoxia, and supplied with fresh pre-conditioned media. For JIB-04 treatment, normoxic cells were pre-treated with 62.5 nM JIB-04 (Xcessbio) for 24 hrs, then treated again with JIB-04 and either transferred to 1% O2 or maintained in normoxia for an additional 24 hrs. Succinate was administered at a final concentration of 2 mM and cells were either maintained in normoxia for 72 hrs or maintained in normoxia for 48 hrs prior to being transferred to 1% O2 for 24 hrs.
FISH was performed as described in (Black et al., 2013; Manning et al., 2010). Probes for 1q12h, 1q telomere, chromosome 8 centromere (alpha satellite), and X centromere (alpha satellite) were purchased from Rainbow Scientific. Probes for Xq13.1 (RP11-177A4), Zebrafish BCL9 (CH73-15J19) and Zebrafish IGBP1 (CH73-223D24) were purchased as BAC clones from Children's Hospital Oakland Research Institute (CHORI BacPac) clone repository. Probes for 1q21.2 (BCL9) and 1q23.3 were purchased from Agilent (SureFISH).
FISH was performed as described in (Black et al., 2013; Manning et al., 2010). Probes for 1q12h, 1q telomere, chromosome 8 centromere (alpha satellite), and X centromere (alpha satellite) were purchased from Rainbow Scientific. Probes for Xq13.1 (RP11-177A4), Zebrafish BCL9 (CH73-15J19) and Zebrafish IGBP1 (CH73-223D24) were purchased as BAC clones from Children's Hospital Oakland Research Institute (CHORI BacPac) clone repository. Probes for 1q21.2 (BCL9) and 1q23.3 were purchased from Agilent (SureFISH). BACS were prepared utilizing PureLink HiPure™ Plasmid Filter Maxiprep kit (Life Technologies) using the recommended modified wash buffer. Probes were nick translated (Abbot Molecular Kit) in the presence of fluorescently labeled dTTP (Enzo Life Science). Images of multiple planes of fields of nuclei were acquired on an Olympus IX81 T Spinning Disk Microscope and analyzed using Slidebook™ 5.0 software. A conservative scoring metric was used for copy gain. Any foci that were touching were scored as a single copy to prevent increased numbers due to normally replicated foci.

[5] = system: KDM4A; experiment: KDM4A protein levels by western blot; format: cell-based, human; settings: RPE cells
Procedure: Western blot analyses were performed according to (Black et al., 2010).
Western blots were performed as in (Black et al., 2010). Briefly, adherent cells were either scraped directly into PBS, or washed with PBS, trypsinized and collected by centrifuging at 2,000 RPM for 5 minutes. For preparation of whole-cell lysates, cell pellets were washed once in ice-cold PBS and resuspended in RIPA lysis buffer [50 mM Tris pH 7.4, 150 mM NaCl, 0.25% Sodium Deoxycholate, 1% NP40, 1 mM EDTA, 10% Glycerol] supplemented with complete protease inhibitor and PhosSTOP™ phosphatase inhibitor cocktails (Roche). Cells were lysed on ice for 15 minutes and immediately frozen at −80° C. for 10 min. Lysates were subsequently sonicated at 70% amplitude for 15 minutes in a QSonica Q800R™ and cleared of cell debris by centrifuging at 12,000 RPM for 15 minutes, before being analyzed by western blotting. For HIF1α expression, adherent cells were washed twice with ice-cold PBS and scraped directly in warmed 1× Laemmli buffer. Samples were sonicated at 70% amplitude for 15 minutes and boiled immediately prior to western blotting.

[6] = system: RPE cells; experiment: Flow cytometry cell cycle analysis; format: cell-based, human
Procedure: Asynchronously growing, or G1/S arrested cells were prepared and fixed as in (Black et al., 2010). Cells were stained with 10 μM EdU for 1 hour prior to collection. Cell cycle was analyzed by PI staining or EdU incorporation using Click-IT EdU™ Flow Cytometry Assay Kit (Life Technologies). Flow cytometry of CD4+ T cells and cell cycle distribution were analyzed using a BD FACS ARIA II™.

[7] = system: H3K36me3; experiment: H3K36 demethylase activity of KDM4A variants in transfected cells (immunofluorescence); format: cell-based; settings: U2OS cells transfected with GFP-KDM4A
[8] = system: HEK 293T cells; experiment: Monitored cell proliferation assay (xCELLigence growth curves, doubling time); format: cell-based, human
Procedure: Seventy two hours post transfection 1×10^4 HEK 293T cells were seeded per well of a 96 well plate, and then treated after 24h. Cell proliferation was monitored with an xCELLigence system (Roche) (Vistejnova et al., 2009).

## COc1ccc(-c2ccc3c(N4CCOC[C@@H]4C)nc(N4CCOC[C@@H]4C)nc3n2)cc1CO [AZD8055]
[1]
  drug sensitivity of KDM4A shRNA cells vs control vector (MTT): more sensitive

## NC(=O)NO [HU, hydroxyurea]
[2]
  apoptosis (percent Annexin V positive cells): no observed increased apoptosis

## COc1cccc2c1C(=O)c1c(O)c3c(c(O)c1C2=O)C[C@@](O)(C(=O)CO)C[C@@H]3O[C@H]1C[C@H](N)[C@H](O)[C@H](C)O1 [doxorubicin]
[2]
  apoptosis (percent Annexin V positive cells): could induce apoptosis in both CTRL and KDM4A cells
[3]
  p53 stabilization and p53 target gene activation: resulted in stabilization of p53 and activation of p53 target genes

## O=C(O)CCC(=O)O [succinate, reference compound]
[4]; 1% O2 24 hours, JIB-04 62.5 nM or 2 mM succinate pre-treatment, or overexpression
  hypoxia-dependent copy gain of 1q12h: sufficient to abrogate hypoxia-dependent copy gain of 1q12h
[4]; 4% oxygen, transfection or 2 mM succinate for 24 hours
  hypoxia-induced 1q12h copy number gains: antagonized
[5]; 1% O2
  KDM4A protein levels in hypoxia: did not alter KDM4A stabilization
[6]; normoxia and hypoxia
  cell cycle profile: did not alter KDM4A stabilization or cell cycle progression

## Tunicamycin
[4]; 24 hours, 2 μg/ml Tunicamycin
  site-specific copy gain (1q12h and 1q21.2) under stress: did not promote site-specific copy gain
[5]; 24 hours
  KDM4A protein levels under stress: significantly increased KDM4A levels
[6]; 24 hours
  cell cycle profile under stress: resulted in altered cell cycle profiles

B1: KDM4A SNP-A482: KDM4A germline variant E482A (protein)
chain: MASESETLNPSARIMTFYPTMEEFRNFSRYIAYIESQGAHRAGLAKVVPPKEWKPRASYDDIDDLVIPAPIQQLVTGQSGLFTQYNIQKKAMTVREFRKIANSDKYCTPRYSEFEELERKYWKNLTFNPPIYGADVNGTLYEKHVDEWNIGRLRTILDLVEKESGITIEGVNTPYLYFGMWKTSFAWHTEDMDLYSINYLHFGEPKSWYSVPPEHGKRLERLAKGFFPGSAQSCEAFLRHKMTLISPLMLKKYGIPFDKVTQEAGEFMITFPYGYHAGFNHGFNCAESTNFATRRWIEYGKQAVLCSCRKDMVKISMDVFVRKFQPERYKLWKAGKDNTVIDHTLPTPEAAEFLKESELPPRAGNEEECPEEDMEGVEDGEEGDLKTSLAKHRIGTKRHRVCLEIPQEVSQSELFPKEDLSSEQYEMTECPAALAPVRPTHSSVRQVEDGLTFPDYSDSTEVKFEELKNVKLEEEDEEEEQAAAALDLSVNPASVGGRLVFSGSKKKSSSSLGSGSSRDSISSDSETSEPLSCRAQGQTGVLTVHSYAKGDGRVTVGEPCTRKKGSAARSFSERELAEVADEYMFSLEENKKSKGRRQPLSKLPRHHPLVLQECVSDDETSEQLTPEEEAEETEAWAKPLSQLWQNRPPNFEAEKEFNETMAQQAPHCAVCMIFQTYHQVEFGGFNQNCGNASDLAPQKQRTKPLIPEMCFTSTGCSTDINLSTPYLEEDGTSILVSCKKCSVRVHASCYGVPPAKASEDWMCSRCSANALEEDCCLCSLRGGALQRANDDRWVHVSCAVAILEARFVNIAERSPVDVSKIPLPRFKLKCIFCKKRRKRTAGCCVQCSHGRCPTAFHVSCAQAAGVMMQPDDWPFVVFITCFRHKIPNLERAKGALQSITAGQKVISKHKNGRFYQCEVVRLTTETFYEVNFDDGSFSDNLYPEDIVSQDCLQFGPPAEGEVVQVRWTDGQVYGAKFVASHPIQMYQVEFEDGSQLVVKRDDVYTLDEELPKRVKSRLSVASDMRFNEIFTEKEVKQEKKRQRVINSRYREDYIEPALYRAIME
modifications: left off: large carriers; small tags and cut ends
notes: KDM4A germline variant E482A
[7]
  H3K36me3 and H3K9me3 catalytic activities: did not appear to be altered
[8]; shRNA KDM4A plus non targetable GFP-KDM4A constructs
  rescue of increased sensitivity to AZD8055 due to KDM4A depletion (doubling time 5h-35h): does not
[8]; shRNA KDM4A plus shRNA-resistant GFP-KDM4A constructs
  rescue of increased sensitivity to Rapamycin of KDM4A depleted cells (doubling time 5h-35h): does not
